{
  "source": "patent US20100196510A1",
  "about": "“COMPOSITION AND TREATMENT” (priority 2007, published 2010)",
  "key": {"[1]": {"tested_on": "rat sensory neurones (dorsal root ganglia)", "experiment": "Number of neuronal cell bodies per field (anti MAP-2) in cisplatin-induced toxicity model", "format": "cell-based", "conditions": "for number of cell bodies per field, Average / number of cell bodies, % Control without cisplatin: 10 ng/ml + cisplatin 3 μg/ml; for effect on cisplatin-induced loss of cell bodies (in words): 10 ng/ml, cisplatin 3 μg/ml", "description": "(§1) The low molecular weight glycosaminoglycans are referred to in the examples as 2400 D.\n(§2) 1. neurone cell bodies stained with an anti MAP 2 antibody (microtubule associated protein, and 2. neurite network density stained with an anti β-Tubulin antibody\nBriefly, a female rat (15 days gestation) was killed by cervical dislocation (Rats Wistar; Janvier, Le Genest-St-Isle, France) and the foetuses removed from the uterus. […] The DRG were recovered and dissociated by trypsinisation for 20 min at 37° C. […] The cell suspension was triturated with a 10 ml pipette and centrifuged at 350×g for 10 min at room temperature. The pellet of dissociated cells was then resuspended in defined culture medium.\nViable cells were counted in a Neubauer cytometer using the trypan blue exclusion test (Sigma) and seeded at a density of 30 000 cells/well in 96 well-plates (Nunc).\n(§3) Six wells per condition were carried out to assess neuronal survival. After 48 hours and 72 hours of incubation, the neuronal cells were fixed for 5 minutes in an ethanol/acetic acid solution (95%/5%) at −20° C. and rinsed 3 times in PBS.\n(§4) Cell bodies of sensory neurones were labelled by monoclonal anti MAP-2 antibody (Sigma M4403, see photograph 1A) and the neurite of sensory neurones were labelled by monoclonal β-Tubulin antibody (Sigma T8660). These antibodies were diluted at 1:400 in incubation solution (PBS with 5% of FCS and 0.1% of saponin, Sigma S-7900). These antibodies specifically label neurone cell bodies and neurites, respectively.\nCell nuclei were stained with a fluorescent marker (Hoechst staining solution, SIGMA H6024, 1 μg/ml in incubation solution during 1 hour).\n(§5) For each condition, 2 pictures per well (12 pictures per condition) were taken using In Cell Analyzer 1000 (Amersham Biosciences) controlled by the computer software In Cell Analyzer 1000 3.2. For the MAP-2 labelling, the magnification was ×10, for the β-Tubulin labelling, the magnification was ×20. For each labelling, all the images were taken in the same conditions.\n(§6) Analysis of the number of cell bodies labelled with anti MAP-2 antibodies, and total length of neurites labelled with anti β-Tubulin antibodies, were carried out using In Cell Analyzer 1000 3.2.Workstation software. The results were expressed in percentage compared to the vehicle. The comparisons of each group were carried out using the unpaired T test."}, "[2]": {"tested_on": "rat sensory neurones (dorsal root ganglia)", "experiment": "Neurite length of sensory neurones (anti β-Tubulin) in cisplatin-induced toxicity model", "format": "cell-based", "conditions": "for Mean neurite Length / neurite length, % Control without cisplatin: 10 ng/ml + cisplatin 3 μg/ml; for effect on cisplatin-induced loss of neurites (in words): 10 ng/ml, cisplatin 3 μg/ml", "description": "as §1, §2\nRat sensory neurones were prepared according to the method described by Hall et al 1997(3). Briefly, a female rat (15 days gestation) was killed by cervical dislocation (Rats Wistar; Janvier, Le Genest-St-Isle, France) and the foetuses removed from the uterus. Their spinal cords with the dorsal root ganglia (DRG) were removed and placed in ice-cold medium of Leibovitz (L15, Fisher 11415-049) containing Penicillin 50 Ul/ml—Streptomycin 50 μg/ml (PS, 1%) and bovine serum albumin (BSA 1%, Sigma A6003). The DRG were recovered and dissociated by trypsinisation for 20 min at 37° C. (trypsin EDTA 10×, 10%, Fisher 15400054) diluted in PBS without calcium and magnesium (Fisher 2007-03). […] The cell suspension was triturated with a 10 ml pipette and centrifuged at 350×g for 10 min at room temperature. The pellet of dissociated cells was then resuspended in defined culture medium.\nViable cells were counted in a Neubauer cytometer using the trypan blue exclusion test (Sigma) and seeded at a density of 30 000 cells/well in 96 well-plates (Nunc). Wells were pre-coated with poly-L-lysine (10 μg/ml, Sigma P2636) in ultra pure sterile water (Merck Eurolab 60759.01).\nCells were allowed to adhere for 2 h and maintained in a humidified incubator at 37° C. in 5% CO2/95% air atmosphere.\nas §3, §4\nAfter 2 hours of incubation, the cells were washed in PBS and incubated with Alexa Fluor 488 goat anti mouse IgG (Molecular Probes A11001) diluted at 1:300 in incubation solution to reveal the MAP-2 and the β-Tubulin antibodies. Cell nuclei were stained with a fluorescent marker (Hoechst staining solution, SIGMA H6024, 1 μg/ml in incubation solution during 1 hour).\nas §5, §6"}},
  "data": [
    {"substance": "NGF: Nerve Growth Factor, a specific growth factor for sensory neurons; reference compound", "values": [
      {"measurement": "number of cell bodies per field, Average", "setting": "[1]; 48 hours", "value": 58.33},
      {"measurement": "number of cell bodies, % Control without cisplatin", "setting": "[1]; 48 hours", "value": 96, "unit": "%"},
      {"measurement": "number of cell bodies per field, Average", "setting": "[1]; 72 hours", "value": 54.92},
      {"measurement": "number of cell bodies, % Control without cisplatin", "setting": "[1]; 72 hours", "value": 102, "unit": "%"},
      {"measurement": "effect on cisplatin-induced loss of cell bodies (in words)", "setting": "[1]; 48 hours", "value": "almost completely prevented cisplatin-induced loss of cell bodies"},
      {"measurement": "effect on cisplatin-induced loss of cell bodies (in words)", "setting": "[1]; 72 hours section (text prints 48 hours)", "value": "completely prevented cisplatin-induced loss of cell bodies"},
      {"measurement": "Mean neurite Length", "setting": "[2]; 48 hours", "value": 6362.44, "unit": "μm"},
      {"measurement": "neurite length, % Control without cisplatin", "setting": "[2]; 48 hours", "value": 117, "unit": "%"},
      {"measurement": "Mean neurite Length", "setting": "[2]; 72 hours", "value": 6000.30, "unit": "μm"},
      {"measurement": "neurite length, % Control without cisplatin", "setting": "[2]; 72 hours", "value": 113, "unit": "%"},
      {"measurement": "effect on cisplatin-induced loss of neurites (in words)", "setting": "[2]; 48 hours", "value": "prevented cisplatin-induced loss of neurites"},
      {"measurement": "effect on cisplatin-induced loss of neurites (in words)", "setting": "[2]; 72 hours", "value": "prevented cisplatin-induced loss of neurites"}
    ]}
  ]
}
